Measured values published in the NIST ThermoML archive (doi:10.1016/j.jct.2016.04.006).

Legend:
[1] = mn = molality of the nth substance listed, in mol/kg; conditions: 100 kPa, Liquid, Capillary tube (Ostwald / Ubbelohde) method
[2] = 100 kPa, Liquid, Capillary tube (Ostwald / Ubbelohde) method

CO[C@H]1O[C@H](CO)[C@@H](O)[C@H](O)[C@@H]1O [α-methyl mannopyranoside] + O
viscosity [mPa·s], [1]
Conditions	m1 = 0.0569	m1 = 0.0853	m1 = 0.1142	m1 = 0.1318	m1 = 0.1443
288.15 K	1.172	1.188	1.208	1.217	1.229
298.15 K	0.913	0.925	0.942	0.95	0.96
308.15 K	0.742	0.75	0.756	0.765	0.77
318.15 K	0.61	0.619	0.625	0.633	0.636

O=C[C@H](O)[C@@H](O)[C@H](O)[C@H](O)CO [D-glucose] + O
viscosity [mPa·s], [1]
Conditions	m1 = 0.0523	m1 = 0.0745	m1 = 0.0885	m1 = 0.1034	m1 = 0.1197	m1 = 0.142
288.15 K	–	1.183	1.185	1.192	1.205	1.219
298.15 K	0.911	0.921	0.926	0.933	0.938	0.948
308.15 K	0.735	0.743	0.747	0.751	0.756	0.762
318.15 K	0.609	0.614	0.618	0.621	0.625	0.63

OC[C@@H](O)[C@@H](O)[C@H](O)[C@H](O)CO [D-mannitol] + O
viscosity [mPa·s], [1]
Conditions	m1 = 0.0578	m1 = 0.0701	m1 = 0.0837	m1 = 0.12	m1 = 0.1409	m1 = 0.1659	m1 = 0.1943
288.15 K	1.181	1.19	1.199	1.224	1.236	1.254	1.278
298.15 K	0.919	0.928	0.935	0.949	0.959	0.974	0.986
308.15 K	0.741	0.746	0.753	0.763	0.771	0.779	0.791
318.15 K	0.611	0.617	0.62	0.629	0.636	0.644	0.651

C[C@@H](O)[C@@H](O)[C@H](O)[C@H](O)C=O [6-deoxy-D-mannose] + O
viscosity [mPa·s], [1]
Conditions	m1 = 0.0395	m1 = 0.0753	m1 = 0.1036	m1 = 0.1173	m1 = 0.1403
288.15 K	1.164	1.183	1.2	1.208	1.22
298.15 K	0.91	0.922	0.933	0.945	0.951
308.15 K	0.732	0.744	0.753	0.759	0.766
318.15 K	0.607	0.616	0.623	0.626	0.633

OC[C@H]1O[C@@H](O[C@H]2[C@H](O)[C@@H](O)[C@H](O)O[C@@H]2CO)[C@H](O)[C@@H](O)[C@@H]1O [D-cellobiose] + O
viscosity [mPa·s], [1]
Conditions	m1 = 0.0529	m1 = 0.0639	m1 = 0.0903	m1 = 0.1292	m1 = 0.1479	m1 = 0.1603
288.15 K	1.193	1.203	1.231	1.269	1.286	1.3
298.15 K	0.928	0.941	0.961	0.99	1.001	1.011
308.15 K	0.748	0.757	0.771	0.796	0.807	0.813
318.15 K	0.621	0.625	0.64	0.657	0.664	0.67

O [water]
[2]
Conditions	viscosity [mPa·s]
288.15 K	1.138
298.15 K	0.89
308.15 K	0.719
318.15 K	0.596

NCC(=O)O [2-aminoacetic acid] + O
viscosity [mPa·s], [1]
Conditions	m1 = 0.05	m1 = 0.15	m1 = 0.25	m1 = 0.35	m1 = 0.5
288.15 K	1.146	1.16	1.175	1.19	1.213
298.15 K	0.896	0.909	0.921	0.934	0.953
308.15 K	0.723	0.735	0.745	0.755	0.77
318.15 K	0.603	0.609	0.618	0.626	0.639

O=C[C@@H](O)[C@@H](O)[C@H](O)[C@H](O)CO [D-mannose] + O
viscosity [mPa·s], [1]
Conditions	m1 = 0.0607	m1 = 0.0751	m1 = 0.0977	m1 = 0.1215	m1 = 0.134	m1 = 0.1525	m1 = 0.1822
288.15 K	–	1.183	1.195	1.207	1.216	1.224	1.243
298.15 K	–	0.921	0.931	0.94	0.945	0.954	0.966
308.15 K	0.739	0.744	0.749	0.757	0.76	0.767	0.776
318.15 K	0.61	0.614	0.62	0.625	0.629	0.635	0.64
